BindingDB's records for doi:10.1021/acs.jmedchem.9b00846 (2019)

Experiments:
[1] = Binding affinity to cereblon in human MDA-MB-231 cells assessed as cell growth inhibition measured after 4 days
[2] = Binding affinity to cereblon in human RV4:11/IRMI-2 cells harboring p53 hotspot mutation Y236H/R249G assessed as cell growth inhibition measured after 4 days
[3] = Binding affinity to cereblon in human MDA-MB-468 cells assessed as cell growth inhibition measured after 4 days
[4] = Binding affinity to cereblon in human RV4:11 cells expressing wild type p53 assessed as cell growth inhibition measured after 4 days
[5] = Binding affinity to cereblon in human MDA-MB-231 cells assessed as reduction in cell growth inhibition measured after 4 days in presence of 10 uM of lenalidomide
[6] = Binding affinity to cereblon in human MDA-MB-468 cells assessed as reduction in cell growth inhibition measured after 4 days in presence of 10 uM lenalidomide
[7] = Binding affinity to cereblon in human RV4:11/IRMI-2 cells harboring p53 hotspot mutation Y236H/R249G assessed as reduction in cell growth inhibition measured after 4 days in presence of 10 uM lenalidomide
[8] = Binding affinity to cereblon in human RV4:11/IRMI-2 cells harboring p53 hotspot mutation Y236H/R249G assessed as reduction in cell growth inhibition measured after 4 days in presence of 100 uM lenalidomide
[9] = Binding affinity to cereblon in human RV4:11 cells expressing wild type p53 assessed as reduction in cell growth inhibition measured after 4 days in presence of 30 uM lenalidomide
[10] = Binding affinity to cereblon in human RV4:11/IRMI-2 cells harboring p53 hotspot mutation Y236H/R249G assessed as reduction in cell growth inhibition measured after 4 days in presence of 30 uM lenalidomide
[11] = Binding affinity to cereblon in human RV4:11 cells expressing wild type p53 assessed as reduction in cell growth inhibition measured after 4 days in presence of 10 uM lenalidomide
[12] = Binding affinity to cereblon in human MDA-MB-468 cells assessed as reduction in cell growth inhibition measured after 4 days in presence of 100 uM lenalidomide
[13] = Binding affinity to cereblon in human RV4:11 cells expressing wild type p53 assessed as reduction in cell growth inhibition measured after 4 days in presence of 100 uM lenalidomide
[14] = Binding affinity to cereblon in human MDA-MB-231 cells assessed as reduction in cell growth inhibition measured after 4 days in presence of 100 uM of lenalidomide
[15] = Binding affinity to cereblon in human MDA-MB-231 cells assessed as reduction in cell growth inhibition measured after 4 days in presence of 30 uM of lenalidomide
[16] = Binding affinity to cereblon in human MDA-MB-468 cells assessed as reduction in cell growth inhibition measured after 4 days in presence of 30 uM lenalidomide

IC50 [1] [µM]	IC50 [2] [µM]	IC50 [3] [µM]	IC50 [4] [µM]	IC50 [5] [µM]	IC50 [6] [µM]	IC50 [7] [µM]	IC50 [8] [µM]	IC50 [9] [µM]	IC50 [10] [µM]	IC50 [11] [µM]	IC50 [12] [µM]	IC50 [13] [µM]	IC50 [14] [µM]	IC50 [15] [µM]	IC50 [16] [µM]	Structure (SMILES)
> 10	> 10	> 10														CNC(=O)[C@@H]1NC2(CCCCC2)[C@@]2(C(=O)Nc3cc(Cl)ccc32)[C@H]1c1cccc(Cl)c1F [US8629141, 21]
> 10	> 10	> 10	0.0055													O=C1CCC(N2Cc3c(CCCCCNC(=O)c4ccc(NC(=O)[C@@H]5NC6(CCCCC6)[C@@]6(C(=O)Nc7cc(Cl)ccc76)[C@H]5c5cccc(Cl)c5F)cc4)cccc3C2=O)C(=O)N1 (stereo partly specified)
	0.0031		0.002	0.623	0.419	0.168	0.982	0.211	0.4	0.096	2.07	0.496	2.14	1.37	0.964	O=C1CCC(N2Cc3c(CCCCCNC(=O)[C@@H]4NC5(CCCCC5)[C@@]5(C(=O)Nc6cc(Cl)ccc65)[C@H]4c4cccc(Cl)c4F)cccc3C2=O)C(=O)N1 (stereo partly specified)
